Reference: PubChem BioAssay (NCI)
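48-hour exposure; five concentrations; linearly interpolated endpoints. Here, GI50 denotes the concentration required for 50% inhibition of growth. TGI denotes the concentration required for complete inhibition of growth.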

Legend:
Assay in all cases: growth of human tumour cells (NCI), 48 h
OVCAR-3 ovarian = system: OVCAR-3 ovarian
EKVX NSCLC = system: EKVX NSCLC
SF-295 CNS = system: SF-295 CNS
NCI/ADR-RES ovarian = system: NCI/ADR-RES ovarian
A498 renal = system: A498 renal
SK-OV-3 ovarian = system: SK-OV-3 ovarian
HOP-62 NSCLC = system: HOP-62 NSCLC
RXF 393 renal = system: RXF 393 renal
OVCAR-5 ovarian = system: OVCAR-5 ovarian
HCC-2998 colon = system: HCC-2998 colon
NCI-H522 lung = system: NCI-H522 lung
MDA-MB-435 = system: MDA-MB-435
UACC-62 melanoma = system: UACC-62 melanoma
T-47D breast = system: T-47D breast
CAKI-1 renal = system: CAKI-1 renal
K-562 leukemia = system: K-562 leukemia
CCRF-CEM leukemia = system: CCRF-CEM leukemia
NCI-H23 lung = system: NCI-H23 lung
LOX IMVI melanoma = system: LOX IMVI melanoma
MCF7 breast = system: MCF7 breast
HL-60(TB) leukemia = system: HL-60(TB) leukemia
OVCAR-4 ovarian = system: OVCAR-4 ovarian
SW-620 colon = system: SW-620 colon
DU-145 prostate = system: DU-145 prostate
HS 578T breast = system: HS 578T breast
NCI-H226 lung = system: NCI-H226 lung
BT-549 breast = system: BT-549 breast
SK-MEL-2 melanoma = system: SK-MEL-2 melanoma
SF-539 CNS = system: SF-539 CNS
A549 NSCLC = system: A549 NSCLC
UACC-257 melanoma = system: UACC-257 melanoma
SNB-75 CNS = system: SNB-75 CNS
MDA-MB-231 breast = system: MDA-MB-231 breast
HCT-15 colon = system: HCT-15 colon
SK-MEL-28 melanoma = system: SK-MEL-28 melanoma
MALME-3M melanoma = system: MALME-3M melanoma
M14 melanoma = system: M14 melanoma
HT29 colon = system: HT29 colon
UO-31 renal = system: UO-31 renal
786-0 renal = system: 786-0 renal
SR leukemia = system: SR leukemia
SF-268 CNS = system: SF-268 CNS
NCI-H460 lung = system: NCI-H460 lung
MOLT-4 leukemia = system: MOLT-4 leukemia
HOP-92 NSCLC = system: HOP-92 NSCLC
TK-10 renal = system: TK-10 renal
SK-MEL-5 melanoma = system: SK-MEL-5 melanoma
SN12C renal = system: SN12C renal
IGROV1 ovarian = system: IGROV1 ovarian
RPMI-8226 leukemia = system: RPMI-8226 leukemia
PC-3 prostate = system: PC-3 prostate
KM12 colon = system: KM12 colon
OVCAR-8 ovarian = system: OVCAR-8 ovarian
ACHN renal = system: ACHN renal
HCT-116 colon = system: HCT-116 colon
COLO 205 colon = system: COLO 205 colon
SNB-19 CNS = system: SNB-19 CNS

Q: Which GI50 (OVCAR-3 ovarian) does the source give for `Cc1cc(OCc2n[nH]c(=S)n2/N=C/c2ccc(F)cc2)ccc1Cl` here?
A: 22.9 µM

Q: What about the TGI (OVCAR-3 ovarian) of the same molecule?
A: 49.4 µM

Q: And the GI50 (EKVX NSCLC)?
A: 64.4 µM

Q: What about the TGI (EKVX NSCLC) of the same molecule?
A: > 100 µM

Q: What about the GI50 (SF-295 CNS) of the same molecule?
A: 30.1 µM

Q: What about the TGI (SF-295 CNS) of the same molecule?
A: > 100 µM

Q: What about the GI50 (NCI/ADR-RES ovarian) of the same molecule?
A: 29.3 µM

Q: What about the TGI (NCI/ADR-RES ovarian) of the same molecule?
A: 87.3 µM

Q: And the GI50 (A498 renal)?
A: 25.1 µM

Q: And the TGI (A498 renal)?
A: 68.3 µM

Q: And the GI50 (SK-OV-3 ovarian)?
A: 31.7 µM

Q: And the TGI (SK-OV-3 ovarian)?
A: 82.3 µM

Q: What about the GI50 (HOP-62 NSCLC) of the same molecule?
A: 81 µM

Q: What about the TGI (HOP-62 NSCLC) of the same molecule?
A: > 100 µM

Q: And the GI50 (RXF 393 renal)?
A: 22.4 µM

Q: What about the TGI (RXF 393 renal) of the same molecule?
A: 46.8 µM

Q: And the GI50 (OVCAR-5 ovarian)?
A: > 100 µM

Q: And the TGI (OVCAR-5 ovarian)?
A: > 100 µM

Q: And the GI50 (HCC-2998 colon)?
A: 20.6 µM

Q: And the TGI (HCC-2998 colon)?
A: 43.7 µM

Q: And the GI50 (NCI-H522 lung)?
A: 21.7 µM

Q: What about the TGI (NCI-H522 lung) of the same molecule?
A: 54.8 µM

Q: What about the GI50 (MDA-MB-435) of the same molecule?
A: 25.9 µM

Q: And the TGI (MDA-MB-435)?
A: > 100 µM

Q: And the GI50 (UACC-62 melanoma)?
A: 20.1 µM

Q: What about the TGI (UACC-62 melanoma) of the same molecule?
A: 41.8 µM

Q: What about the GI50 (T-47D breast) of the same molecule?
A: 20.5 µM

Q: And the TGI (T-47D breast)?
A: 57.3 µM

Q: And the GI50 (CAKI-1 renal)?
A: 42.8 µM

Q: What about the TGI (CAKI-1 renal) of the same molecule?
A: > 100 µM

Q: And the GI50 (K-562 leukemia)?
A: 20.8 µM

Q: And the TGI (K-562 leukemia)?
A: 54 µM

Q: What about the GI50 (CCRF-CEM leukemia) of the same molecule?
A: 25.7 µM

Q: What about the TGI (CCRF-CEM leukemia) of the same molecule?
A: 70.2 µM

Q: And the GI50 (NCI-H23 lung)?
A: 29.8 µM

Q: What about the TGI (NCI-H23 lung) of the same molecule?
A: 94 µM

Q: And the GI50 (LOX IMVI melanoma)?
A: 16.1 µM

Q: And the TGI (LOX IMVI melanoma)?
A: 32.4 µM

Q: And the GI50 (MCF7 breast)?
A: 33.1 µM

Q: What about the TGI (MCF7 breast) of the same molecule?
A: > 100 µM

Q: And the GI50 (HL-60(TB) leukemia)?
A: 18.3 µM

Q: And the TGI (HL-60(TB) leukemia)?
A: 47.2 µM

Q: What about the GI50 (OVCAR-4 ovarian) of the same molecule?
A: 25.4 µM

Q: And the TGI (OVCAR-4 ovarian)?
A: 55.4 µM

Q: What about the GI50 (SW-620 colon) of the same molecule?
A: 34.5 µM

Q: And the TGI (SW-620 colon)?
A: > 100 µM

Q: What about the GI50 (DU-145 prostate) of the same molecule?
A: 56.7 µM

Q: What about the TGI (DU-145 prostate) of the same molecule?
A: > 100 µM

Q: And the GI50 (HS 578T breast)?
A: 56.6 µM

Q: And the TGI (HS 578T breast)?
A: > 100 µM

Q: And the GI50 (NCI-H226 lung)?
A: 22.4 µM

Q: What about the TGI (NCI-H226 lung) of the same molecule?
A: 54.7 µM

Q: What about the GI50 (BT-549 breast) of the same molecule?
A: 48 µM

Q: And the TGI (BT-549 breast)?
A: > 100 µM

Q: And the GI50 (SK-MEL-2 melanoma)?
A: 23.1 µM

Q: And the TGI (SK-MEL-2 melanoma)?
A: 57.2 µM

Q: What about the GI50 (SF-539 CNS) of the same molecule?
A: 25.8 µM

Q: What about the TGI (SF-539 CNS) of the same molecule?
A: 57.4 µM

Q: What about the GI50 (A549 NSCLC) of the same molecule?
A: 26.6 µM

Q: What about the TGI (A549 NSCLC) of the same molecule?
A: 68.6 µM

Q: What about the GI50 (UACC-257 melanoma) of the same molecule?
A: 26.4 µM

Q: What about the TGI (UACC-257 melanoma) of the same molecule?
A: 62 µM

Q: And the GI50 (SNB-75 CNS)?
A: 22.7 µM

Q: What about the TGI (SNB-75 CNS) of the same molecule?
A: 69.2 µM

Q: And the GI50 (MDA-MB-231 breast)?
A: 23.4 µM

Q: What about the TGI (MDA-MB-231 breast) of the same molecule?
A: 62.5 µM

Q: And the GI50 (HCT-15 colon)?
A: 19.2 µM

Q: What about the TGI (HCT-15 colon) of the same molecule?
A: 47.2 µM

Q: And the GI50 (SK-MEL-28 melanoma)?
A: 26.7 µM

Q: What about the TGI (SK-MEL-28 melanoma) of the same molecule?
A: 74.2 µM

Q: And the GI50 (MALME-3M melanoma)?
A: 25.1 µM

Q: And the TGI (MALME-3M melanoma)?
A: 56.5 µM

Q: And the GI50 (M14 melanoma)?
A: 29 µM

Q: What about the TGI (M14 melanoma) of the same molecule?
A: > 100 µM

Q: What about the GI50 (HT29 colon) of the same molecule?
A: 18.9 µM

Q: And the TGI (HT29 colon)?
A: 37.7 µM

Q: And the GI50 (UO-31 renal)?
A: 29.5 µM

Q: And the TGI (UO-31 renal)?
A: 91.6 µM

Q: And the GI50 (786-0 renal)?
A: 29.2 µM

Q: And the TGI (786-0 renal)?
A: 87.2 µM

Q: And the GI50 (SR leukemia)?
A: 18.5 µM

Q: And the TGI (SR leukemia)?
A: 39.7 µM

Q: What about the GI50 (SF-268 CNS) of the same molecule?
A: 30 µM

Q: And the TGI (SF-268 CNS)?
A: 86.7 µM

Q: What about the GI50 (NCI-H460 lung) of the same molecule?
A: 28.6 µM

Q: What about the TGI (NCI-H460 lung) of the same molecule?
A: > 100 µM

Q: What about the GI50 (MOLT-4 leukemia) of the same molecule?
A: 19.4 µM

Q: And the TGI (MOLT-4 leukemia)?
A: 51 µM

Q: What about the GI50 (HOP-92 NSCLC) of the same molecule?
A: 32.6 µM

Q: And the TGI (HOP-92 NSCLC)?
A: > 100 µM

Q: What about the GI50 (TK-10 renal) of the same molecule?
A: 19.1 µM

Q: And the TGI (TK-10 renal)?
A: 58 µM

Q: What about the GI50 (SK-MEL-5 melanoma) of the same molecule?
A: 17.9 µM

Q: And the TGI (SK-MEL-5 melanoma)?
A: 35 µM

Q: What about the GI50 (SN12C renal) of the same molecule?
A: 19.6 µM

Q: And the TGI (SN12C renal)?
A: 37.1 µM

Q: What about the GI50 (IGROV1 ovarian) of the same molecule?
A: 25.4 µM

Q: And the TGI (IGROV1 ovarian)?
A: 82.3 µM

Q: What about the GI50 (RPMI-8226 leukemia) of the same molecule?
A: 16.7 µM

Q: What about the TGI (RPMI-8226 leukemia) of the same molecule?
A: 40.1 µM

Q: And the GI50 (PC-3 prostate)?
A: 29.2 µM

Q: And the TGI (PC-3 prostate)?
A: > 100 µM

Q: And the GI50 (KM12 colon)?
A: 22.1 µM

Q: What about the TGI (KM12 colon) of the same molecule?
A: 53.8 µM

Q: What about the GI50 (OVCAR-8 ovarian) of the same molecule?
A: 38.8 µM

Q: What about the TGI (OVCAR-8 ovarian) of the same molecule?
A: > 100 µM

Q: What about the GI50 (ACHN renal) of the same molecule?
A: 31.2 µM

Q: And the TGI (ACHN renal)?
A: 87.5 µM

Q: And the GI50 (HCT-116 colon)?
A: 23.3 µM

Q: What about the TGI (HCT-116 colon) of the same molecule?
A: 53.1 µM

Q: What about the GI50 (COLO 205 colon) of the same molecule?
A: 15.9 µM

Q: And the TGI (COLO 205 colon)?
A: 35.8 µM

Q: What about the GI50 (SNB-19 CNS) of the same molecule?
A: 27.8 µM

Q: And the TGI (SNB-19 CNS)?
A: 83.8 µM
